Experimental findings from patent publication US10035791B2, “Bicyclic compound and pharmaceutical composition thereof for treating stroke and use thereof” (China Medical University, priority 2016, dated 2018) are described below.

Assay [1] relates to ischemic rats. In words: Volume of the infarction after cerebral ischemia, TTC staining. It counts as in vivo, Sprague-Dawley (SD) rats. Conditions: 0.1, 1, 10 mg/kg intraperitoneal, 2 days after treatment, vs control, in particular 1 mg/kg, FIGS. 17A, 17B. From the text:
The ischemic rats are induced by an ischemia-reperfusion model to simulate transient focal cerebral ischemia in rats. Test animals are male Sprague-Dawley (SD) rats weighing 250-300 g. The rats are anesthetized with chloral hydrate (0.4 g/kg IP) and subjected to cerebral ischemia. The ischemia-reperfusion model is induced by ligations of bilateral common carotid arteries (CCAs) and a right middle cerebral artery (MCA). The bilateral CCAs are clamped with non-traumatic arterial clips, and the right MCA is ligated with an 10-0 nylon suture. After 90 minutes ischemia, the suture on the MCA and the arterial clips on CCAs are removed to allow reperfusion. Core body temperature is monitored with a thermistor probe (Hewlett-Packard Model 21090A probe, Hewlett-Packard Company, Andover, Mass.), and maintained at 37° C. with a heating pad during anesthesia. After recovery from anesthesia, rat body temperature is maintained at 37° C. with a heat lamp.
In addition, the ischemic rats are intraperitoneal injected with different dosages of the Compound 1 (0.1 mg/kg, 1 mg/kg and 10 mg/kg). The ischemic rats intraperitoneal injected with vehicle are used as the control. At 2 days after the Compound 1 treatment, the ischemic rats are intracardially perfused with PBS. The brain tissues are removed, immersed in cold PBS, and sliced into 2-mm-thick sections. […]

In assay [2] the test system is NSCs. In words: Neurosphere self-renewal assay of the NSCs. The format is cell-based, mice. Conditions: 0.1, 1, 10 μM for 16 hours vs control group, especially 1 μM. The procedure: To determine whether the HIF-1α-Bmi-1 pathway regulates the proliferation of the NSCs a neurosphere self-renewal assay is performed in this example. In the neurosphere self-renewal assay, the NSCs are cultured in non-adherent cultures to form neurospheres for examining the effect of the HIF-1α-Bmi-1 pathway on the self-renewal of the neurosphere.
(§1) To prepare the NSCs, after removal of meninges, subventricular zones (SVZ) of lateral ventricles from adult mice brain (4 week-of-age) are aseptically isolated and dissociated as previously described (J Cell Sci 2006; 119, 4467-4474). All steps are operated under sterile conditions. Then, neurosphere culture are prepared in neurobasal (NB) medium (Gibco BRL) supplemented with 2% of B27 (Gibco BRL), 2 mM of L-glutamine (PAN Biotech), 100 U/ml of penicillin/0.1 mg/L of streptomycin (Gibco BRL). For maintenance and expansion of the cultures, the NB/B27 is further supplemented with 2 μg/mL of heparin (Sigma), 20 ng/mL of FGF-2 (R&D Systems) and 20 ng/mL of EGF (R&D Systems). Neurosphere cultures are maintained at 37° C. in a humidified incubator with 5% CO2. For clonal/low density cultures, primary neurospheres grown at high density are dissociated into a single cell suspension and reseeded into 96-well plates at 100 cells per ml of media and the number of newly formed neurospheres is counted after 7 days. In addition, the Bmi-1 expressions, SOX2 expressions, Nestin expressions, Musashi-1 expressions, BrdU expressions and ki-67 expressions of the newly formed neurospheres are determined by the immunofluorescence staining.
In another example, the NSCs are treated with different dosages of the Compound 1 (0.1 μM, 1 μM and 10 μM) for 16 hours, wherein the NSCs treated with 1 μM of the Compound 1 are further transduced with the LV-Bmi-1-sh or LV-HIF-1α-sh respectively. Then the NSCs are cultured in the neurosphere culture to observe the frequency of the neurosphere formation, the self-renewal potential of the NSCs and the neurosphere size. […]

Assay [3] has as its system NSCs. Nature of the assay: Proliferation index (PI) measurement of CFSE-labelled NSCs by flow cytometry. The format is cell-based, mice. As to conditions: 1 μM for 16 hours; control group 4.37, FIG. 11C. The procedure:
as §1
To analyze whet her he Compound 1 modulates the NSCs proliferation, this example examines the effect of the HIF-1α-Bmi-1 pathway on the self-renewal of the neurosphere. […]
A general note: Flow cytometry measures light scatter and fluorescence of single cells or particles in a stream.

Assay [4] concerns HIF-1α. Nature of the assay: Nuclear translocation of the HIF-1α in the PCCs under hypoxia, double immunofluorescence. As to conditions: 1 μM 2-ME2 for 16 hours, then 1% O2 for 8 hours, FIG. 6A. It counts as cell-based, C57BL/6 mice. The procedure: Test cells are primary cortical cultures (PCCs) in this example. The PCCs are prepared from cerebral cortexes of gestation day 17 embryos from C57BL/6 mice as described previously (Cell Death Differ 2008; 15: 143-151). The PCCs are maintained under serum-free conditions in neurobasal medium (Invitrogen), supplemented with B-27 supplement (2%; invitrogen), glutamine (0.5 mM; Sigma Aldrich), glutamate ([…]; Sigma Aldrich), penicillin (100 U/ml) and streptomycin ([…]; Invitrogen). At 4 days in vitro, half of the medium is removed and replaced with fresh medium without glutamate. The cultures are maintained in a humidified incubator at 37° C. with 5% CO2. At 7 days in vitro, the PCCs are used for experimentation.
The subcellular locations of the HIF-1α and the Bmi-1 in the PCCs under hypoxia are examined by double immunofluorescence study. The PCCs are divided into three groups. One group is cultured with 21% of O2 as a control group. Another group is cultured with 1% of O2 for 8 hours as a hypoxic group. The other group is treated with 1 μM of 2-ME2 for 16 hours and then cultured with 1% of O2 for 8 hours as a 2-ME2 treated hypoxic group.

Take `COC(=O)C1=CO[C@@H](O)[C@@H]2C(COC(=O)[C@@H](N)Cc3ccccc3)=CC[C@H]12` [Compound 1]: in assay [1], the “volume of the infarction (TTC staining)” value is listed as “much smaller”. Moreover, the “frequency of the neurosphere formation” value in assay [2] (FIG. 11F) is “significantly higher frequency of the neurosphere formation”. Moreover, the “self-renewal potential of the NSCs” value in assay [2] (FIG. 11G) is on record as “more self-renewal potential”. For the same compound, the neurosphere size entry in assay [2] (FIG. 11H) was “larger neurosphere size”. The “proliferation index (PI) of the NSCs” value in assay [3] was 6.77.
Regarding `COc1cc2c(cc1O)CC[C@@H]1[C@@H]2CC[C@]2(C)[C@@H](O)CC[C@@H]12` [Compound 2-ME2, 2-Methoxyestradiol, reference compound], the “translocation of the HIF-1α to the nucleus under hypoxia” value in assay [4] is listed as “abolishes the translocation”.
